Test results reported in patent US20210221848A1, “POLYMYXIN DERIVATIVES AND THEIR USE IN COMBINATION THERAPY TOGETHER WITH DIFFERENT ANTIBIOTICS” (priority 2014, published 2021).
Like-named read-outs stand apart in the source and are kept apart here.

Assays:
[1] = absence of a second agent, Table 6B

Substance	MIC, E. coli ATCC 25922 (E. coli; sole activity, Table 6C)	MIC, E. coli NCTC 13441 (E. coli; sole activity, Table 6C)	MIC, K. pneumoniae ATCC 4352 (K. pneumoniae; sole activity, Table 6C)	MIC, K. pneumoniae ATCC BAA-2146 (K. pneumoniae; sole activity, Table 6C)	MIC, P. aeruginosa ATCC 27853 (P. aeruginosa; sole activity, Table 6C)	MIC, P. aeruginosa CCUG 59347 (P. aeruginosa; sole activity, Table 6C)	MIC, A. baumannii ATCC BAA-747 (A. baumannii; sole activity, Table 6C)	MIC, A. baumannii NCTC 13424 (A. baumannii; sole activity, Table 6C)	MIC, E. coli ATCC 25922 (E. coli; [1])	MIC, E. coli NCTC 13441 (E. coli; [1])	MIC, K. pneumoniae ATCC 4352 (K. pneumoniae; [1])	MIC, K. pneumoniae ATCC BAA-2146 (K. pneumoniae; [1])	MIC, P. aeruginosa ATCC 27853 (P. aeruginosa; [1])	MIC, P. aeruginosa CCUG 59347 (P. aeruginosa; [1])	MIC, A. baumannii ATCC BAA-747 (A. baumannii; [1])	MIC, A. baumannii NCTC 13424 (A. baumannii; [1])
(S)-1-((2,3- dihydrobenzo[b][1,4] dioxin-6- yl)methyl)piperazine- 2-carbonyl polymyxin B nonapeptide [Example D58]	0.25 micrograms/mL	0.25 micrograms/mL	0.25 micrograms/mL	0.25 micrograms/mL	0.5 micrograms/mL	1 micrograms/mL	1 micrograms/mL	0.5 micrograms/mL								
(cis-5-(2-methylpropyl) piperidine)-3-carbonyl polymyxin B nonapeptide [Example D48]									0.125 micrograms/mL	0.125 micrograms/mL	0.125 micrograms/mL	0.25 micrograms/mL	0.25 micrograms/mL	1 micrograms/mL	0.5 micrograms/mL	0.5 micrograms/mL
(S)-3-amino-2- (benzylamino)pro- panoyl Polymyxin B nonapeptide [Example D59]	0.5 micrograms/mL	0.5 micrograms/mL	0.5 micrograms/mL	0.5 micrograms/mL	0.5 micrograms/mL	1 micrograms/mL	2 micrograms/mL	1 micrograms/mL								
1,2,3,4- tetrahydroisoquinoline- 4-carbonyl polymyxin B nonapeptide [Example D14]									>8 micrograms/mL	>8 micrograms/mL	>8 micrograms/mL	>8 micrograms/mL	1 micrograms/mL	4 micrograms/mL	>8 micrograms/mL	>8 micrograms/mL
2-aminomethyl-3- naphthalen-2-yl- propanoyl polymyxin B nonapeptide [Example D41]									1 micrograms/mL	1 micrograms/mL	2 micrograms/mL		0.5 micrograms/mL	1 micrograms/mL	2 micrograms/mL	1 micrograms/mL
4-Amino-2-benzyl butanoylpolymyxin B nonapeptide [Example D3]									0.25 micrograms/mL	0.5 micrograms/mL	1 micrograms/mL	2 micrograms/mL	0.5 micrograms/mL	1 micrograms/mL	>8 micrograms/mL	>8 micrograms/mL
5-((2- methylpropyl)sulfon- amido)piperidine- 3-carbonyl- polymyxin B nonapeptide [Example D73]	0.25 micrograms/mL	0.5 micrograms/mL	0.5 micrograms/mL	0.5 micrograms/mL	1 micrograms/mL	2 micrograms/mL	4 micrograms/mL	2 micrograms/mL								
(cis-6-octylpiperidine)- 3-carbonyl polymyxin B nonapeptide [Example D16]									>8 micrograms/mL	>8 micrograms/mL	>8 micrograms/mL	>8 micrograms/mL	8 micrograms/mL	1 micrograms/mL	>8 micrograms/mL	>8 micrograms/mL
(trans-6- octylpiperidine)-3- carbonyl polymyxin B nonapeptide [Example D18]									4 micrograms/mL	4 micrograms/mL	8 micrograms/mL	>8 micrograms/mL	4 micrograms/mL	2 micrograms/mL	>8 micrograms/mL	>8 micrograms/mL
4-octylpiperidine-3- carbonyl polymyxin B nonapeptide [Example D34]									1 micrograms/mL	1 micrograms/mL	2 micrograms/mL	2 micrograms/mL	1 micrograms/mL	2 micrograms/mL	2 micrograms/mL	2 micrograms/mL
(cis-5- cyclohexylpiperidine)- 3-carbonyl L-Thr-L- Dap-polymyxin B heptapeptide [Example D43]									2 micrograms/mL	4 micrograms/mL	2 micrograms/mL	4 micrograms/mL	1 micrograms/mL	2 micrograms/mL	4 micrograms/mL	4 micrograms/mL
4- (isobutylamino)pi- peridine-3- carbonyl L-Thr-L- Dap-polymyxin B heptapeptide [Example D74]	0.25 micrograms/mL	0.25 micrograms/mL	0.125 micrograms/mL	0.5 micrograms/mL	0.25 micrograms/mL	0.5 micrograms/mL	2 micrograms/mL	2 micrograms/mL								
(cis-5-(2-methylpropyl) piperidine)-3-carbonyl polymyxin B nonapeptide [Example D47]									4 micrograms/mL	8 micrograms/mL	4 micrograms/mL	8 micrograms/mL	2 micrograms/mL	>8 micrograms/mL	>8 micrograms/mL	>8 micrograms/mL
2-benzyl-3- (methylamino)pro- panoyl polymyxin B nonapeptide [Example D57]	0.25 micrograms/mL	0.5 micrograms/mL	0.25 micrograms/mL	0.25 micrograms/mL	0.5 micrograms/mL	1 micrograms/mL	4 micrograms/mL	2 micrograms/mL								
1-(2- trifluoromethylben- zyl)piperazine- 2-carbonyl Polymyxin B nonapeptide [Example D55]	0.25 micrograms/mL	0.25 micrograms/mL	0.25 micrograms/mL	0.5 micrograms/mL	0.5 micrograms/mL	1 micrograms/mL	0.25 micrograms/mL	0.5 micrograms/mL								
